# US11382328B2, “Rapid drug discovery methods for pathogen inactivation” (priority 2019, dated 2022)
# Where “and” joins values, the source holds several entries; their conditions need not be identical. Identical values can stand only once.
# System: E. coli strain W3110
# Assay: Synergy assays: Biolog chemical sensitivity panels with Group IB metal, coefficient of drug interaction (CDI) from relative growth
# Assay type: cell-based
# Details: for CDI (coefficient of drug interaction), copper mixed with biocide: Copper (mM) section; for CDI (coefficient of drug interaction), gold + biocide: Gold (μM)
# [1] = 1st of 3 copper concentrations (value not shown), 3rd of four biocide concentrations
# [2] = 1st of 3 copper concentrations (value not shown), 4th of four biocide concentrations
# [3] = 2nd of 3 copper concentrations (value not shown), 3rd of four biocide concentrations
# [4] = 2nd of 3 copper concentrations (value not shown), 4th of four biocide concentrations
# [5] = 3rd of 3 copper concentrations (value not shown), 3rd of four biocide concentrations
# [6] = 3rd of 3 copper concentrations (value not shown), 4th of four biocide concentrations
# [7] = Gold section of Table 5, first of three gold concentrations (μM, value not given), biocide concentration 3 of 4
# [8] = Gold section of Table 5, first of three gold concentrations (μM, value not given), biocide concentration 4 of 4
# [9] = Gold section of Table 5, second of three gold concentrations (μM, value not given), biocide concentration 3 of 4
# [10] = Gold section of Table 5, second of three gold concentrations (μM, value not given), biocide concentration 4 of 4
# [11] = Gold section of Table 5, third of three gold concentrations (μM, value not given), biocide concentration 3 of 4
# [12] = Gold section of Table 5, third of three gold concentrations (μM, value not given), biocide concentration 4 of 4
# [13] = Silver 0.5 μM, 3rd of four biocide concentrations, E. coli
# [14] = Silver 0.5 μM, 4th of four biocide concentrations, E. coli
# [15] = Silver 1.0 μM, 3rd of four biocide concentrations, E. coli
# [16] = Silver 1.0 μM, 4th of four biocide concentrations, E. coli
# [17] = Silver 5.0 μM, 3rd of four biocide concentrations, E. coli
# [18] = Silver 5.0 μM, 4th of four biocide concentrations, E. coli
# [19] = Silver 0.5 μM, 2nd of four biocide concentrations, E. coli
# [20] = Silver 1.0 μM, 2nd of four biocide concentrations, E. coli
Compound,"CDI (coefficient of drug interaction), copper mixed with biocide [2]","CDI (coefficient of drug interaction), copper mixed with biocide [3]","CDI (coefficient of drug interaction), copper mixed with biocide [4]","CDI (coefficient of drug interaction), copper mixed with biocide [6]",CDI (coefficient of drug interaction) [7],CDI (coefficient of drug interaction) [8],CDI (coefficient of drug interaction) [9],CDI (coefficient of drug interaction) [10],CDI (coefficient of drug interaction) [11],CDI (coefficient of drug interaction) [12],"CDI (coefficient of drug interaction), silver + biocide [13]","CDI (coefficient of drug interaction), silver + biocide [14]","CDI (coefficient of drug interaction), silver + biocide [15]","CDI (coefficient of drug interaction), silver + biocide [16]","CDI (coefficient of drug interaction), silver + biocide [17]","CDI (coefficient of drug interaction), silver + biocide [18]",also measured
CCCCC(CC)CNC(=N)NC(=N)NCCCCCCNC(=N)NC(=N)NCC(CC)CCCC (stereo not drawn) [alexidine],Tox,Tox,Tox,Tox,Tox,Tox,Tox,Tox,Tox,Tox,Tox,Tox,Tox,Tox,Tox,Tox,"CDI (coefficient of drug interaction), copper mixed with biocide [1]: Tox; CDI (coefficient of drug interaction), copper mixed with biocide [5]: Tox"
O=C1C2CC=CCC2C(=O)N1SC(Cl)(Cl)Cl (stereo not drawn) [captan],–,–,–,–,–,–,–,–,–,–,–,Tox,–,Tox,–,Tox,–
O=C(O)c1ccccc1S [thiosalicylic acid],–,–,–,–,–,–,–,–,–,–,–,Tox,–,Tox,–,Tox,–
C[n+]1cc2c3c(ccc2c2ccc4cc5c(cc4c21)OCO5)OCO3 [sanguinarine],Tox,Tox,Tox,Tox,Tox,Tox,Tox,Tox,Tox,Tox,Tox,Tox,Tox,Tox,Tox,Tox,–
poly-L-lysine,Tox,Tox,Tox,Tox,Tox,Tox,Tox,Tox,Tox,Tox,Tox,Tox,Tox,Tox,Tox,Tox,"CDI (coefficient of drug interaction), copper mixed with biocide (1st of 3 copper concentrations (value not shown), 1st of four biocide concentrations): 1.15; CDI (coefficient of drug interaction), copper mixed with biocide (1st of 3 copper concentrations (value not shown), 2nd of four biocide concentrations): 0.95; CDI (coefficient of drug interaction), copper mixed with biocide [1]: Tox; CDI (coefficient of drug interaction), copper mixed with biocide (2nd of 3 copper concentrations (value not shown), 1st of four biocide concentrations): 1.03; CDI (coefficient of drug interaction), copper mixed with biocide (2nd of 3 copper concentrations (value not shown), 2nd of four biocide concentrations): 0.96; CDI (coefficient of drug interaction), copper mixed with biocide (3rd of 3 copper concentrations (value not shown), 2nd of four biocide concentrations): 0.59; CDI (coefficient of drug interaction), copper mixed with biocide [5]: Tox; CDI (coefficient of drug interaction) (Gold section of Table 5, first of three gold concentrations (μM, value not given), biocide concentration 1 of 4): 1.07; CDI (coefficient of drug interaction) (Gold section of Table 5, first of three gold concentrations (μM, value not given), biocide concentration 2 of 4): 0.98; CDI (coefficient of drug interaction) (Gold section of Table 5, second of three gold concentrations (μM, value not given), biocide concentration 1 of 4): 1.08; CDI (coefficient of drug interaction) (Gold section of Table 5, second of three gold concentrations (μM, value not given), biocide concentration 2 of 4): 1.06; CDI (coefficient of drug interaction) (Gold section of Table 5, third of three gold concentrations (μM, value not given), biocide concentration 1 of 4): 0.93; CDI (coefficient of drug interaction) (Gold section of Table 5, third of three gold concentrations (μM, value not given), biocide concentration 2 of 4): 0.88; CDI (coefficient of drug interaction), silver + biocide (Silver 0.5 μM, 1st of four biocide concentrations, E. coli): 0.92; CDI (coefficient of drug interaction), silver + biocide [19]: 0.96; CDI (coefficient of drug interaction), silver + biocide (Silver 1.0 μM, 1st of four biocide concentrations, E. coli): 0.88; CDI (coefficient of drug interaction), silver + biocide [20]: 0.88"
CCCCc1ccc(C(=O)O)nc1 [fusaric acid],–,–,–,–,–,–,–,–,–,–,Tox,Tox,Tox,Tox,Tox,Tox,"CDI (Copper 0.1 mM, biocide concentration 3 of 4): Tox; CDI (Copper 0.1 mM, biocide concentration 4 of 4): Tox; CDI (Copper 0.5 mM, biocide concentration 3 of 4): Tox; CDI (Copper 0.5 mM, biocide concentration 4 of 4): Tox; CDI (Copper 1.0 mM, biocide concentration 3 of 4): Tox; CDI (Copper 1.0 mM, biocide concentration 4 of 4): Tox; CDI (coefficient of drug interaction) (Gold 5 μM, biocide concentration 3 of 4, E. coli): Tox; CDI (coefficient of drug interaction) (Gold 5 μM, biocide concentration 4 of 4, E. coli): Tox; CDI (coefficient of drug interaction) (Gold 25 μM, biocide concentration 3 of 4, E. coli): Tox; CDI (coefficient of drug interaction) (Gold 25 μM, biocide concentration 4 of 4, E. coli): Tox; CDI (coefficient of drug interaction), silver + biocide [19]: Tox; CDI (coefficient of drug interaction), silver + biocide [20]: Tox; CDI (coefficient of drug interaction), silver + biocide (Silver 5.0 μM, 2nd of four biocide concentrations, E. coli): Tox; CDI (coefficient of drug interaction) ([…], biocide concentration 3 of 4, E. coli): Tox; CDI (coefficient of drug interaction) ([…], biocide concentration 4 of 4, E. coli): Tox"
"Cc1ccc2c(Cl)cc(Cl)c(O)c2n1 [5,7-dichloro-8-hydroxyquinaldine]",–,–,–,–,–,–,–,–,–,–,–,Tox,–,Tox,–,Tox,–
polymyxin B,–,–,–,–,–,–,–,–,–,–,–,–,–,–,–,–,"CDI (coefficient of drug interaction) (Copper (mM), 1st of 3 copper concentrations (head line not shown), biocide concentration 1 of 4, E. coli): 0.90; CDI (coefficient of drug interaction) (Copper (mM), 1st of 3 copper concentrations (head line not shown), biocide concentration 3 of 4, E. coli): Tox; CDI (coefficient of drug interaction) (Copper (mM), 1st of 3 copper concentrations (head line not shown), biocide concentration 4 of 4, E. coli): Tox; CDI (coefficient of drug interaction) (Copper (mM), 2nd of 3 copper concentrations (head line not shown), biocide concentration 1 of 4, E. coli): 0.97 and 0.75; CDI (coefficient of drug interaction) (Copper (mM), 2nd of 3 copper concentrations (head line not shown), biocide concentration 3 of 4, E. coli): Tox; CDI (coefficient of drug interaction) (Copper (mM), 2nd of 3 copper concentrations (head line not shown), biocide concentration 4 of 4, E. coli): Tox; CDI (coefficient of drug interaction) (Copper (mM), 3rd of 3 copper concentrations (head line not shown), biocide concentration 1 of 4, E. coli): 0.82 and 0.56; CDI (coefficient of drug interaction) (Copper (mM), 3rd of 3 copper concentrations (head line not shown), biocide concentration 3 of 4, E. coli): Tox; CDI (coefficient of drug interaction) (Copper (mM), 3rd of 3 copper concentrations (head line not shown), biocide concentration 4 of 4, E. coli): Tox; CDI (coefficient of drug interaction), gold + biocide (first of 3 gold concentrations, biocide concentration 1 of 4): 1.07 and 0.97; CDI (coefficient of drug interaction), gold + biocide (first of 3 gold concentrations, biocide concentration 4 of 4): Tox; CDI (coefficient of drug interaction), gold + biocide (second of 3 gold concentrations, biocide concentration 1 of 4): 1.10 and 0.99; CDI (coefficient of drug interaction), gold + biocide (second of 3 gold concentrations, biocide concentration 4 of 4): Tox; CDI (coefficient of drug interaction), gold + biocide (third of 3 gold concentrations, biocide concentration 1 of 4): 1.00 and 0.92; CDI (coefficient of drug interaction), gold + biocide (third of 3 gold concentrations, biocide concentration 4 of 4): Tox; CDI (Silver 0.5 μM, biocide concentration 1 of 4): 1.37 and 0.79; CDI (Silver 0.5 μM, biocide concentration 4 of 4): Tox; CDI (Silver 1.0 μM, biocide concentration 1 of 4): 1.23 and 0.85; CDI (Silver 1.0 μM, biocide concentration 4 of 4): Tox; CDI (Silver 5.0 μM, biocide concentration 4 of 4): Tox"
